Test results reported in BigSolDB 2.1.

COc1ccc(C=O)cc1O
solubility (mole fraction)
Settings | in ethanol | in ethyl acetate | in formic acid | in isobutanol | in isobutyl acetate | in isopropanol | in methanol | in methyl acetate | in n-butanol | in n-propanol
278.15 K | 0.0125 | 0.0203 | 0.0432 | 0.0086 | 0.015 | 0.0072 | 0.0156 | 0.0382 | 0.012 | 0.0186
283.15 K | 0.0153 | 0.0246 | 0.0486 | 0.0098 | 0.0165 | 0.0092 | 0.0188 | 0.0425 | 0.0149 | 0.0209
288.15 K | 0.0184 | 0.029 | 0.0571 | 0.0161 | 0.0184 | 0.0118 | 0.0231 | 0.0536 | 0.017 | 0.0242
293.15 K | 0.0227 | 0.0342 | 0.068 | 0.0192 | 0.0216 | 0.0149 | 0.0291 | 0.0633 | 0.0219 | 0.0284
298.15 K | 0.0279 | 0.0401 | 0.0832 | 0.0223 | 0.025 | 0.0186 | 0.0362 | 0.074 | 0.0253 | 0.0331
303.15 K | 0.0338 | 0.0478 | 0.101 | 0.0271 | 0.0305 | 0.0259 | 0.0445 | 0.0866 | 0.0352 | 0.04
308.15 K | 0.0429 | 0.0559 | 0.115 | 0.0338 | 0.034 | 0.0296 | 0.059 | 0.104 | 0.0445 | 0.0455
313.15 K | 0.0547 | 0.0655 | 0.137 | 0.042 | 0.0408 | 0.0386 | 0.0836 | 0.121 | 0.0542 | 0.0582
318.15 K | 0.0695 | 0.0806 | 0.165 | 0.0499 | 0.0509 | 0.0576 | 0.134 | 0.147 | 0.0641 | 0.0751
